# Read-outs that look alike come from different tables or passages of the source.
# Columns and labels:
# [1] = test system: patients with heart failure and a left ventricular ejection fraction ≥40%
# [2] = test system: patients across cardio-kidney-metabolic disease states
# [3] = test system: patients with HF and LVEF ≥40%; assay: […]-HF (Example 2) health status: KCCQ-TSS, NYHA class, EQ-5D-5L; format: in vivo, human; settings: adjusted for baseline value, geographic region
# Method: Kansas City Cardiomyopathy Questionnaire (KCCQ) is a standardized patient reported outcomes (PRO) questionnaire which assesses symptoms, physical and social limitations, and quality of life in patients with heart failure (HF). Patients are asked to recall how their HF impacted their life over a 2-week recall period.
# Total HF events was analyzed using an LWYY model in a similar fashion to the primary endpoint. The percentage of participants with improvement in NYHA class from Baseline to Month 12, was analyzed with a logistic regression model including factors for treatment group and stratification levels. Patients that died or are lost to follow-up at month 12 was considered to had not improved. The absolute change from baseline including measurements up to Month 12 of the TSS of the KCCQ, was analyzed by a repeated measures mixed model including the factors treatment group, baseline, visit, baseline-by-visit interaction, and factors for the stratification levels. The comparison assumed a common treatment effect across Month 6, 9 and 12. […] The composite renal endpoint and all-cause mortality was analyzed using a stratified log-rank test for testing and a stratified Cox proportional hazards model for obtaining a point estimate with 95% confidence interval. […]
# [4] = FINE-HEART pooled safety population, finerenone n = 9,482, treatment-emergent
# [5] = FINE-HEART pooled safety population, n = 9,482
# [6] = FINE-HEART pooled, n = 9,482, investigator reported adverse events
structure (smiles),measurement,setting,value
"CCOc1ncc(C)c2c1[C@H](c1ccc(C#N)cc1OC)C(C(N)=O)=C(C)N2 [finerenone, (4S)-4-(4-cyano-2-methoxyphenyl)-5-ethoxy-2,8-dimethyl-1,4-dihydro-1,6-naphthyridine-3-carboxamide]",Change in bilirubin during follow-up,[1]; early after randomization,sustained reduction in bilirubin
same,"Change in KCCQ clinical summary score at 6, 9 and 12 mo (least squares mean change)",[1]; finerenone group,+8.0 ± 0.3
same,Death from any cause - %,[1]; finerenone group,(16.4%)
same,First worsening heart failure event or death from cardiovascular causes - %,[1]; finerenone group,(20.8%)
same,Improvement in NYHA class from baseline to 12 mo - %,[1]; finerenone group,(18.6%)
same,Kidney composite outcome - %,[1]; finerenone group,(2.5%)
same,Death from cardiovascular causes - %,"[1]; finerenone group N = 3,003",(8.1%)
same,Number of subjects with AE of death or leading to death: COVID-19,"[1]; n = 2,993",7
same,Number of subjects with AE of death or leading to death: COVID-19 pneumonia,"[1]; n = 2,993",9
same,Number of subjects with AE of death or leading to death: Cardiac arrest,"[1]; n = 2,993",12
same,Number of subjects with AE of death or leading to death: Cardiac failure,"[1]; n = 2,993",6
same,Number of subjects with AE of death or leading to death: Death,"[1]; n = 2,993",70
same,Number of subjects with AE of death or leading to death: Lung neoplasm malignant,"[1]; n = 2,993",7
same,Number of subjects with AE of death or leading to death: Pneumonia,"[1]; n = 2,993",27
same,Number of subjects with AE of death or leading to death: Respiratory failure,"[1]; n = 2,993",7
same,Number of subjects with AE of death or leading to death: Sepsis,"[1]; n = 2,993",19
same,Number of subjects with AE of death or leading to death: Septic shock,"[1]; n = 2,993",12
same,Number of subjects with AE of death or leading to death: Sudden cardiac death,"[1]; n = 2,993",18
same,Number of subjects with AE of death or leading to death: Sudden death,"[1]; n = 2,993",20
same,Number of subjects with a treatment-emergent SAE: COVID-19,"[1]; n = 2,993",69
same,Number of subjects with a treatment-emergent SAE: COVID-19 pneumonia,"[1]; n = 2,993",28
same,Number of subjects with a treatment-emergent SAE: Death,"[1]; n = 2,993",29
same,Number of subjects with a treatment-emergent SAE: Sepsis,"[1]; n = 2,993",25
same,Number of subjects with a treatment-emergent SAE: Sudden death,"[1]; n = 2,993",16
same,Number of subjects with a treatment-emergent SAE: Urinary tract infection,"[1]; n = 2,993",29
same,Subjects with AE of death or leading to death (%): COVID-19,"[1]; n = 2,993",(0.2%)
same,Subjects with AE of death or leading to death (%): COVID-19 pneumonia,"[1]; n = 2,993",(0.3%)
same,Subjects with AE of death or leading to death (%): Cardiac arrest,"[1]; n = 2,993",(0.4%)
same,Subjects with AE of death or leading to death (%): Cardiac failure,"[1]; n = 2,993",(0.2%)
same,Subjects with AE of death or leading to death (%): Death,"[1]; n = 2,993",(2.3%)
same,Subjects with AE of death or leading to death (%): Lung neoplasm malignant,"[1]; n = 2,993",(0.2%)
same,Subjects with AE of death or leading to death (%): Pneumonia,"[1]; n = 2,993",(0.9%)
same,Subjects with AE of death or leading to death (%): Respiratory failure,"[1]; n = 2,993",(0.2%)
same,Subjects with AE of death or leading to death (%): Sepsis,"[1]; n = 2,993",(0.6%)
same,Subjects with AE of death or leading to death (%): Septic shock,"[1]; n = 2,993",(0.4%)
same,Subjects with AE of death or leading to death (%): Sudden cardiac death,"[1]; n = 2,993",(0.6%)
same,Subjects with AE of death or leading to death (%): Sudden death,"[1]; n = 2,993",(0.7%)
same,Subjects with a treatment-emergent SAE (%): COVID-19,"[1]; n = 2,993",2.3%
same,Subjects with a treatment-emergent SAE (%): COVID-19 pneumonia,"[1]; n = 2,993",0.9%
same,Subjects with a treatment-emergent SAE (%): Death,"[1]; n = 2,993",1.0%
same,Subjects with a treatment-emergent SAE (%): Sepsis,"[1]; n = 2,993",0.8%
same,Subjects with a treatment-emergent SAE (%): Sudden death,"[1]; n = 2,993",0.5%
same,Subjects with a treatment-emergent SAE (%): Urinary tract infection,"[1]; n = 2,993",1.0%
same,Hyperkalemia leading to Death - %,[1]; through the end of study,(0%)
same,Hyperkalemia leading to Death - no.,[1]; through the end of study,0
same,Hyperkalemia leading to Death - %,[1]; treatment emergent,(0%)
same,Hyperkalemia leading to Death - no.,[1]; treatment emergent,0
same,"Any adverse event leading to treatment discontinuation, % of patients","[2]; FINE-HEART pooled safety population, finerenone n = 9,482",(5.4%)
same,"Any serious adverse event, % of patients",[2]; [4],(34.6%)
same,"Any serious adverse event, number of patients",[2]; [4],"3,283"
same,"Acute kidney injury leading to hospitalization, % of patients",[2]; [5],(1.5%)
same,"Acute kidney injury leading to hospitalization, number of patients",[2]; [5],143
same,"Acute kidney injury leading to treatment discontinuation, % of patients",[2]; [5],(0.2%)
same,"Acute kidney injury leading to treatment discontinuation, number of patients",[2]; [5],15
same,"Acute kidney injury, % of patients",[2]; [5],(3.6%)
same,"Gynecomastia or breast hyperplasia, % of patients",[2]; [5],(0.2%)
same,"Gynecomastia or breast hyperplasia, number of patients",[2]; [5],16
same,"Systolic blood pressure<100 mmHg, % of patients",[2]; [5],(11.1%)
same,"Systolic blood pressure<100 mmHg, number of patients",[2]; [5],"1,040"
same,"Any potassium >6.0 mmol/L, % of patients","[2]; FINE-HEART pooled, n = 9,482, central laboratory measurements",(3.3%)
same,"Hyperkalemia leading to death, % of patients",[2]; [6],(0.0%)
same,"Hyperkalemia leading to death, number of patients",[2]; [6],0
same,"Hyperkalemia leading to hospitalization, % of patients",[2]; [6],(0.8%)
same,"Hyperkalemia leading to hospitalization, number of patients",[2]; [6],80
same,"Hyperkalemia leading to treatment discontinuation, % of patients",[2]; [6],(1.3%)
same,"Hyperkalemia, % of patients",[2]; [6],(12.8%)
same,"Hyperkalemia, number of patients",[2]; [6],"1,216"
same,"Change in KCCQ-TSS from baseline to 12 months, difference in mean (95% CI) finerenone vs placebo",[3]; bilirubin Tertile 2 0.5-0.6 mg/dL,0.69 (−0.92 to 2.30)
same,"Change in KCCQ-TSS from baseline to 12 months, difference in mean (95% CI) finerenone vs placebo",[3]; bilirubin Tertile 3 ≥0.7 mg/dL,3.15 (1.52 to 4.77)

# — patent US20250313559A1 (Bayer Aktiengesellschaft, priority 2024, published 2025)
